The values that follow come from patent US9079899B2, “Anti-staphylococcal celecoxib derivatives” (THE OHIO STATE UNIVERSITY, priority 2010, dated 2015).

Experiment [1] has as its system HT-29 human colon adenocarcinoma cells. Kind of experiment: Antiproliferative assay (MTT). The experiment is classed as cell-based. Particulars: for IC50: Homo sapiens, HT-29, 24-h exposure, 10% FBS-supplemented RPMI 1640, MTT; for Selectivity ratio: IC50 (HT-29) / MIC against S. aureus. As for the experimental part:
As celecoxib has been reported to be cytotoxic to cancer cells, the growth inhibitory activities of celecoxib and selected derivatives were assessed in. HT-29 human colon adenocarcinoma cells after 24-h exposure in 10% FBS-supplemented RPMI 1640 medium.
Antiproliferative assay. The cytotoxicity of individual test agents in HT-29 human colon adenocarcinoma cells was evaluated by using the 3-(4,5-dimethylthiazol-2-yl)-2,5-diphenyltetrazolium (MTT) assay. Briefly, HT-29 cells were seeded into 96-well plates at 1×10^4 cells/well (with a minimum of 6 wells per test condition) in RPMI 1640 medium supplemented with 10% FBS and 10 μg/ml of gentamicin. After overnight incubation at 37° C. under 5% CO2, the medium from each well was removed and replenished with fresh aliquots of the same medium containing various concentrations of test agents dissolved in DMSO (final concentration, 0.1%). Control cells were treated with DMSO alone at a concentration equal to that in drug-treated cells. After 24 h of drug exposure, the medium was removed and replaced by 100 μl of 0.5 mg/ml MTT in 10% FBS-containing medium, and the cells were incubated in the CO2 incubator at 37° C. for 2 h. Subsequently, medium was removed from each well, and the reduced MTT dye was dissolved with 100 μl of DMSO per well. Absorbance at 570 nm was measured with a plate reader. The 50% inhibitory concentration (IC50) of each drug was determined from dose-response curves by using CalcuSyn software (Biosoft, Cambridge, United Kingdom).

Experiment [2] has as its system S. epidermidis (ATCC 35984). Kind of experiment: MIC, broth microdilution. The experiment is classed as cell-based. Particulars: Staphylococcus epidermidis.
The subject of experiment [3] is S. aureus. Kind of experiment: CFU of S. aureus after exposure to celecoxib at the MIC. In kind it is cell-based. Particulars: at the MIC of 32 μg/ml, after 24 h. The text has this:
The inventors examined the suppressive effect of celecoxib on the growth of S. aureus (ATCC 29213), S. epidermidis (ATCC 35984), and two different strains of MRSA (ATCC 33592 and SCCmec VT), as shown in Table IX.

The test system of experiment [4] is S. aureus (ATCC 29213). Kind of experiment: MIC, broth microdilution. In kind it is cell-based. Particulars: Staphylococcus aureus.
In experiment [5] the test system is MRSA (ATCC 33592). Kind of experiment: MIC, broth microdilution. In kind it is cell-based, methicillin-resistant Staphylococcus aureus. Particulars: Staphylococcus aureus; read-out: MIC MRSA (ATCC 33592).
Experiment [6] has as its system three strains of MRSA. Kind of experiment: MIC, text statements on the three strains of MRSA together. In kind it is cell-based, methicillin-resistant Staphylococcus aureus. Particulars: Staphylococcus aureus, read-out: MIC against MRSA. The protocol:
Antibacterial assays. The MIC of each agent was determined following the guidelines for the broth microdilution method recommended by the Clinical and Laboratory Standards Institute. Wikler, M. A. Performance Standards for Antimicrobial Susceptibility Testing; Eighteenth Informational Supplement Clinical and Laboratory Standards Institute: 2008. Briefly, bacteria grown overnight on Luria Bertani (LB) agar plates were suspended in phosphate-buffered saline (PBS) to an O.D. of 1.0 at 600 nm, which was equivalent to 2×10^9 CFU/ml, and then diluted in CAMHB to a final concentration of 5×10^5 CFU/ml. […] The MIC of each agent was defined as the lowest concentration at which no growth of bacteria was observed.

Experiment [7] concerns MRSA ATCC 33592. Kind of experiment: Time-kill assay. Particulars: for reduction in CFU: after 24-h exposure to 8 times the MIC, CAMHB. The experiment is classed as cell-based, methicillin-resistant Staphylococcus aureus. The protocol:
Numbers of viable bacteria in the broth after each exposure period were enumerated by CFU assay, and the results expressed as CFU/ml. Points indicate means, and bars indicate SD (n=3). The dashed line represents 99.9% cell killing. Ctl, control.
Otherwise, it is considered bacteriostatic. Pankey, G. A.; Sabath, L. D. Clin. Infect. Dis., 38, 864-870 (2004). To category these novel agents, represented by compounds 9, 36, and 46, in this regard, their time-killing kinetics were assessed in MRSA ATCC 33592 over a 24-h treatment period. Overnight-grown bacteria were inoculated in cation-adjusted Muller Hinton broth (CAMHB) at a concentration of 5×10^5 CFU/ml followed by exposure to individual compounds at 2- to 8-fold their respective MIC values. […] Accordingly, compounds 36 and 46 were classified as bactericidal. As the killing was time-dependent, the antibacterial effect of these agents was not caused by the disruption of membrane integrity.
Time-kill assay. To analyze the kinetics of bacterial cell killing, MRSA ATCC 33592 cells at a density of 5×10^5 CFU/ml were treated with test agents at 2-, 4-, and 8-fold MICs in triplicate in 24-well plates. Bacterial survival in medium containing DMSO at a concentration equal to that used for drug-treated bacteria served as control. At different times after the start of drug exposure, a 100 μl aliquot of the bacterial suspension was taken from each well and serially diluted with PBS. The diluted samples were spread onto LB agar plates followed by incubation at 37° C. for 16 h. The bacterial colonies on each plate were enumerated, and the number of viable bacteria in each well was expressed as CFU per milliliter.

Experiment [8] concerns MRSA (SCCmec VT). Kind of experiment: MIC, broth microdilution. In kind it is cell-based, methicillin-resistant Staphylococcus aureus.
For experiment [9], the system named is S. lugdunesis (NTUH isolate). Kind of experiment: MIC, broth microdilution. Particulars: read-out: MIC S. lugdunesis (NTUH isolate). In kind it is cell-based.
In experiment [10] the test system is S. aureus (ATCC 12598). Kind of experiment: MIC, broth microdilution. The experiment is classed as cell-based. Particulars: Staphylococcus aureus, ATCC12598.
The subject of experiment [11] is MRSA (ATCC 49476). Kind of experiment: MIC, broth microdilution. In kind it is cell-based, methicillin-resistant Staphylococcus aureus. Particulars: Staphylococcus aureus.
Experiment [12] relates to S. epidermidis (ATCC 12228). Kind of experiment: MIC, broth microdilution. The experiment is classed as cell-based. Particulars: Staphylococcus epidermidis, ATCC12228.
For experiment [13], the system named is MRSA 33592. Kind of experiment: Survival of MRSA-infected mice. Particulars: once, 1 h postinfection, 5×10^7 CFU i.p. The experiment is classed as in vivo, C57BL/6 mice. The protocol:
(A) Effect of intraperitoneal administration of Cpd-36 and Cpd-46 on survival of methicillin-resistant Staphylococcus aureus-infected mice. C57BL/6 mice were inoculated intraperitoneally with 5×10^7 CFU of MRSA 33592. At 1 h postinfection, mice were treated intraperitoneally once with vehicle, Cpd-36 or Cpd-46 at 30 mg/kg (B) Effect of oral administration of Cpd-46 on survival of MRSA 33592-infected mice. One hour after intraperitoneal inoculation with 5×10^7 CFU of MRSA 33592, C57BL/6 mice were treated orally once with Cpd-46 at 100 mg/kg or vehicle. Survival data are presented as Kaplan-Meier survival curves for each treatment group (n=5). The difference in the mean survival times of the groups was statistically significant at P values of 0.05.

In experiment [14] the test system is S. hominis (ATCC 27844). Kind of experiment: MIC, broth microdilution. Particulars: Staphylococcus hominis, ATCC27844. In kind it is cell-based.
For experiment [15], the system named is S. saprophyticus (ATCC 15305). Kind of experiment: MIC, broth microdilution. The experiment is classed as cell-based. Particulars: Staphylococcus saprophyticus, ATCC15305.
For experiment [16], the system named is S. haemolyticus (ATCC 29970). Kind of experiment: MIC, broth microdilution. The experiment is classed as cell-based. Particulars: Staphylococcus haemolyticus, ATCC29970.
Where [17] appears, read: ATCC35984, 24 h, CAMHB, 24 h, 37° C., read-out: MIC S. epidermidis (ATCC 35984).
Where [18] appears, read: ATCC29213, 24 h, CAMHB, 24 h, 37° C., read-out: MIC S. aureus (ATCC 29213).
Where [19] appears, read: Table XIII, S. aureus (SSCmecVT).
[20] abbreviates: Staphylococcus aureus, MRSA, read-out: MIC MRSA (SCCmec VT).

Values after ≈ are worked out from the molar mass of the structure shown. “Also recorded” adds a separate entry of the source. Where two headings read alike, the source gives them in different places. Where only a bound is given, the exact number is not on record here.

Compound `Cc1ccc(-c2cc(C(F)(F)F)nn2-c2ccc(S(N)(=O)=O)cc2)cc1` [Celecoxib, celecoxib] had an IC50 in experiment [1] of 18 µg/mL (≈ 47.2 µM). For the same compound, the MIC amounted to 16 µg/mL (≈ 42 µM) in experiment [2] (ATCC35984, Table IX, S. epidermidis (ATCC 35984), read-out: MIC) and 32 µg/mL (≈ 83.9 µM) in experiment [4] (ATCC29213, Table IX, S. aureus (ATCC 29213), read-out: MIC). The “decrease in CFU relative to control” value in experiment [3] is listed as 6 log.

Regarding `NC(=O)c1ccc(-n2nc(C(F)(F)F)cc2-c2c3ccccc3cc3ccccc23)cc1` [Compound 9, 4-(5-Anthracen-9-yl-3-trifluoromethyl-pyrazol-1-yl)-benzamide], the MIC in experiment [5] was 2 µg/mL (≈ 4.64 µM); in experiment [2] (setting [17]) it was ≤ 2 µg/mL; in [6], 0.5 to 2 µg/mL (≈ 1.16 to 4.64 µM); in experiment [4] (setting [18]) it was ≤ 2 µg/mL. In [1], this compound registered an IC50 of 12 µg/mL (≈ 27.8 µM). The “reduction in CFU” value in experiment [7] came to 99.14%. In [7] (range of 2×-8×MIC), the “dose-dependent effect on cell killing” value is given as “did not show a dose-dependent effect”.

Turning to `NS(=O)(=O)Nc1ccc(-n2nc(C(F)(F)F)cc2-c2ccc3c(ccc4ccccc43)c2)cc1` [Compound 36, N-[4-(5-Phenanthren-2-yl-3-trifluoromethyl-pyrazol-1-yl)-phenyl]-aminosulfonamide], the IC50 in experiment [1] came out at 12 µg/mL (≈ 24.9 µM). The Selectivity ratio in [1] is on record as 12. The MIC in experiment [2] (setting [17]) was ≤ 2 µg/mL; in [8] (setting [19]), 1 µg/mL (≈ 2.07 µM); in experiment [4] (setting [18]), ≤ 2 µg/mL; in experiment [9] it was 2 µg/mL (≈ 4.15 µM). The “reduction in CFU” value in experiment [7] worked out at 99.91%.

Take `Cc1ccc(-c2cc(C(F)(F)F)nn2-c2ccc(NS(N)(=O)=O)cc2)cc1` [Compound 41, N-[4-(5-p-Tolyl-3-trifluoromethyl-pyrazol-1-yl)-phenyl]-aminosulfonamide]: the MIC in [5], in experiment [10], in experiment [2] (setting [17]), in [11], in experiment [8] (setting [20]) and in experiment [4] (setting [18]) was 4 µg/mL (≈ 10.1 µM) in each case. This compound also yielded an MIC in experiment [12] of 4 µg/mL (≈ 10.1 µM). Moreover, the IC50 in experiment [1] amounted to 28 µg/mL (≈ 70.6 µM).

Take `Cc1ccc(-c2ccc(-c3cc(C(F)(F)F)nn3-c3ccc(NS(N)(=O)=O)cc3)cc2)cc1` [Compound 43, N-{4-[5-(4′-Methylbiphenyl-4-yl)-3-trifluoromethyl-pyrazol-1-yl]-phenyl}-aminosulfonamide]: the MIC in [5], in experiment [10], in experiment [11], in [8] (setting [20]), in experiment [4] (setting [18]) and in experiment [12] was 1 µg/mL (≈ 2.12 µM) each time. Also, the IC50 in [1] came to 9 µg/mL (≈ 19 µM).

Take `NS(=O)(=O)Nc1ccc(-n2nc(C(F)(F)F)cc2-c2ccc(-c3ccc(Br)cc3)cc2)cc1` [Compound 44, N-{4-[5-(4′-Bromobiphenyl-4-yl)-3-trifluoromethyl-pyrazol-1-yl]-phenyl}-aminosulfonamide]: the MIC in experiment [5], in experiment [10], in experiment [11], in [8] (setting [20]), in experiment [4] (setting [18]) and in [12] was 1 µg/mL (≈ 1.86 µM) in each case. Besides, the concentration for half-maximal inhibition (IC50) in experiment [1] was 10 µg/mL (≈ 18.6 µM).

On to `NS(=O)(=O)Nc1ccc(-n2nc(C(F)(F)F)cc2-c2c3ccccc3cc3ccccc23)cc1` [Compound 46, N-[4-(5-Anthracen-9-yl-3-trifluoromethyl-pyrazol-1-yl)-phenyl]-aminosulfonamide], for which the IC50 in experiment [1] amounted to 20 µg/mL (≈ 41.5 µM). Also, the Selectivity ratio in experiment [1] is on record as 40. Also, it took 0.5 µg/mL (≈ 1.04 µM) to inhibit growth in experiment [8] (setting [19]) (MIC). For the same compound, the “survival of MRSA-infected mice” value in [13] (intraperitoneal, 30 mg/kg) was “improve the survival”; in [13] (oral, 100 mg/kg), “improve the survival”. Also, in experiment [7], the “reduction in CFU” value came to 99.99%. Besides, in [7] (bactericidal = 99.9% reduction in inoculum within 24 h), the “classification bactericidal / bacteriostatic” value is reported as “bactericidal; also recorded: bacteriostatic”.

For `NS(=O)(=O)Nc1ccc(-n2nc(C(F)(F)F)cc2-c2ccc3cc4ccccc4cc3c2)cc1` [Compound 47, N-[4-(5-Anthracen-2-yl-3-trifluoromethyl-pyrazol-1-yl)-phenyl]-aminosulfonamide], the MIC worked out at 2 µg/mL (≈ 4.15 µM) in [5]; 2 µg/mL (≈ 4.15 µM) in [14]; 8 µg/mL (≈ 16.6 µM) in experiment [15]; 2 µg/mL (≈ 4.15 µM) in experiment [11]; 2 µg/mL (≈ 4.15 µM) in experiment [8] (setting [20]); 2 µg/mL (≈ 4.15 µM) in experiment [12]. For the same compound, in experiment [16], the MIC amounted to 16 µg/mL (≈ 33.2 µM). The IC50 in [1] came to 11 µg/mL (≈ 22.8 µM).
